Laboratory results taken from US9708334B2, “Substituted 2,4,5,6-tetrahydropyrrolo[3,4-c]pyrazole and 4,5,6,7-tetrahydro-2H-pyrazolo[4,3-c]pyridine compounds as GlyT1 inhibitors” (DART NEUROSCIENCE (CAYMAN) LTD., priority 2014, dated 2017).

Molecular target: T1, GlyT1 (Homo sapiens, UniProt P48067)
T1 construct: expressed in transfected cells
T1 sequence (P48067 1-706): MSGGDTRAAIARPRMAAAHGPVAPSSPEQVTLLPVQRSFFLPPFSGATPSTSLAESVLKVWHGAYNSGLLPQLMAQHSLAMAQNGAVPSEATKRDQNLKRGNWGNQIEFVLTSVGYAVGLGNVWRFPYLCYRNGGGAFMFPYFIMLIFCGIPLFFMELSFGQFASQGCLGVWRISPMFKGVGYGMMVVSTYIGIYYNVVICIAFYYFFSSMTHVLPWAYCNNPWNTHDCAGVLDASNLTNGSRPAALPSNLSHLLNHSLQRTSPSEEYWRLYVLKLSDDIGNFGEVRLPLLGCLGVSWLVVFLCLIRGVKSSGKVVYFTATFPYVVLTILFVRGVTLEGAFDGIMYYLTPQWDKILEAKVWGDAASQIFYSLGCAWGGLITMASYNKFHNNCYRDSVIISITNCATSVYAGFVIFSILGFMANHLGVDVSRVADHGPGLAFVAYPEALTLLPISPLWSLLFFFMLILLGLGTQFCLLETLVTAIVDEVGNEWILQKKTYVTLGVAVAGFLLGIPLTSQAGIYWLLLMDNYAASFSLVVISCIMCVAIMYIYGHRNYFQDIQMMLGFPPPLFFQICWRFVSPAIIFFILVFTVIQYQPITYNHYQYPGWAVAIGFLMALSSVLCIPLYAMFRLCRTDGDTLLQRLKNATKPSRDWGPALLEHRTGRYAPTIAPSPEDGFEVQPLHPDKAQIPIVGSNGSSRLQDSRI
Assay: Glycine Transporter 1 (GlyT1) uptake assay, scintillation proximity assay of [14C]-glycine uptake
Type: cell-based
Conditions: SPA, four parameter logistic fit, read-out: GlyT1 (pIC50) (converted)
Procedure, shortened: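 IC50 values derive from four-parameter logistic curves fitted to dose-response data. Uptake of [14C]-glycine measured in scintillation proximity format.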

C[C@H](Oc1ccc(C#N)cc1C(=O)N1Cc2cn(-c3ccccn3)nc2C1)C(F)(F)F [Example 349, 3-[2-(Pyridin-2-yl)-2H 4H 5H 6H-pyrrolo[3,4-c]pyrazole-5-carbonyl]-4-{[(2 S)-1 1 1-trifluoropropan-2-yl]oxy}benzonitrile]
IC50: 100 to 1000 nM

CS(=O)(=O)c1ccc(C2CCCC2)c(C(=O)N2Cc3cn(-c4ccc(F)cc4)nc3C2)c1 [Example 350, 5-(2-Cyclopentyl-5-methanesulfonylbenzoyl)-2-(4-fluorophenyl)-2H 4H 5H 6H-pyrrolo[3,4-c]pyrazole]
IC50: < 100 nM

Cc1ncc(-n2cc3c(n2)CN(C(=O)c2cc(C#N)ccc2O[C@@H](C)C(F)(F)F)C3)cc1F [Example 351, 3-[2-(5-Fluoro-6-methylpyridin-3-yl)-2H 4H 5H 6H-pyrrolo[3,4-c]pyrazole-5-carbonyl]-4-{[(2 S)-1 1 1-trifluoropropan-2-yl]oxy}benzonitrile]
IC50: 100 to 1000 nM

Cc1c(F)cncc1-n1cc2c(n1)CN(C(=O)c1cc(C#N)ccc1O[C@@H](C)C(F)(F)F)C2 [Example 352, 3-[2-(5-Fluoro-4-methylpyridin-3-yl)-2H 4H 5H 6H-pyrrolo[3,4-c]pyrazole-5-carbonyl]-4-{[(2 S)-1 1 1-trifluoropropan-2-yl]oxy}benzonitrile]
IC50: 100 to 1000 nM

Cc1cc(-n2cc3c(n2)CN(C(=O)c2cc(C#N)ccc2O[C@@H](C)C(F)(F)F)C3)ccn1 [Example 353, 3-[2-(2-Methylpyridin-4-yl)-2H 4H 5H 6H-pyrrolo[3,4-c]pyrazole-5-carbonyl]-4-{[(2S)-1 1 1-trifluoropropan-2-yl]oxy}benzonitrile]
IC50: < 100 nM

Cc1ncc(F)cc1-n1cc2c(n1)CN(C(=O)c1cc(C#N)ccc1O[C@@H](C)C(F)(F)F)C2 [Example 354, 3-[2-(5-Fluoro-2-methylpyridin-3-yl)-2H 4H 5H 6H-pyrrolo[3,4-c]pyrazole-5-carbonyl]-4-{[(2S)-1 1 1-trifluoropropan-2-yl]oxy}benzonitrile]
IC50: 1000 to 10000 nM

Cc1cc(-n2cc3c(n2)CN(C(=O)c2cc(S(C)(=O)=O)ccc2O[C@@H](C)C(F)(F)F)C3)ccn1 [Example 356, 4-[5-(5-Methanesulfonyl-2-{[(2S)-1 1 1-trifluoropropan-2-yl]oxy}benzoyl)-2H 4H 5H 6H-pyrrolo[3,4-c]pyrazol-2-yl]-2-methylpyridine]
IC50: < 100 nM

Cc1ccnc(-n2cc3c(n2)CN(C(=O)c2cc(S(C)(=O)=O)ccc2O[C@@H](C)C(F)(F)F)C3)c1 [Example 357, 2-[5-(5-Methanesulfonyl-2-{[(2S)-1 1 1-trifluoropropan-2-yl]oxy}benzoyl)-2H 4H 5H 6H-pyrrolo[3,4-c]pyrazol-2-yl]-4-methylpyridine]
IC50: < 100 nM

Cc1cc(-n2cc3c(n2)CN(C(=O)c2cc(S(C)(=O)=O)ccc2O[C@@H](C)C(F)(F)F)C3)ncc1F [Example 359, 5-Fluoro-2-[5-(5-methanesulfonyl-2-{[(2S)-1 1 1-trifluoropropan-2-yl]oxy}benzoyl)-2H 4H 5H 6H-pyrrolo[3,4-c]pyrazol-2-yl]-4-methylpyridine]
IC50: < 100 nM

Cc1cccc(-n2cc3c(n2)CN(C(=O)c2cc(S(C)(=O)=O)ccc2O[C@@H](C)C(F)(F)F)C3)n1 [Example 360, 2-[5-(5-Methanesulfonyl-2-{[(2S)-1 1 1-trifluoropropan-2-yl]oxy}benzoyl)-2H 4H 5H 6H-pyrrolo[3,4-c]pyrazol-2-yl]-6-methylpyridine]
IC50: < 100 nM

Cc1cc(F)cnc1-n1cc2c(n1)CN(C(=O)c1cc(S(C)(=O)=O)ccc1O[C@@H](C)C(F)(F)F)C2 [Example 361, 5-Fluoro-2-[5-(5-methanesulfonyl-2-{[(2S)-1 1 1-trifluoropropan-2-yl]oxy}benzoyl)-2H 4H 5H 6H-pyrrolo[3,4-c]pyrazol-2-yl]-3-methylpyridine]
IC50: 100 to 1000 nM

Cc1nc(-n2cc3c(n2)CN(C(=O)c2cc(S(C)(=O)=O)ccc2O[C@@H](C)C(F)(F)F)C3)ccc1F [Example 362, 3-Fluoro-6-[5-(5-methanesulfonyl-2-{[(2S)-1 1 1-trifluoropropan-2-yl]oxy}benzoyl)-2H 4H 5H 6H-pyrrolo[3,4-c]pyrazol-2-yl]-2-methylpyridine]
IC50: < 100 nM

CS(=O)(=O)c1ccc(N2CCCCC2)c(C(=O)N2Cc3cn(-c4ccc(F)cc4)nc3C2)c1 [Example 363, 1-{2-[2-(4-Fluorophenyl)-2H 4H 5H 6H-pyrrolo[3,4-c]pyrazole-5-carbonyl]-4-methanesulfonylphenyl}piperidine]
IC50: < 100 nM

COc1cc(-n2cc3c(n2)CN(C(=O)c2cc(C#N)ccc2O[C@@H](C)C(F)(F)F)C3)ccn1 [Example 364, 3-[2-(2-Methoxypyridin-4-yl)-2H 4H 5H 6H-pyrrolo[3,4-c]pyrazole-5-carbonyl]-4-{[(2S)-1 1 1-trifluoropropan-2-yl]oxy}benzonitrile]
IC50: < 100 nM

COc1cc(-n2ncc3c2CN(C(=O)c2cc(C#N)ccc2O[C@@H](C)C(F)(F)F)C3)ccn1 [Example 365, 3-[1-(2-Methoxypyridin-4-yl)-1H 4H 5H 6H-pyrrolo[3,4-c]pyrazole-5-carbonyl]-4-{[(2S)-1 1 1-trifluoropropan-2-yl]oxy}benzonitrile]
IC50: 1000 to 10000 nM

COc1cc(-n2ncc3c2CN(C(=O)c2cc(C#N)ccc2OC(C)C)C3)ccn1 [Example 366, 3-[1-(2-Methoxypyridin-4-yl)-1H 4H 5H 6H-pyrrolo[3,4-c]pyrazole-5-carbonyl]-4-(propan-2-yloxy)benzonitrile]
IC50: 1000 to 10000 nM

CCc1cc(-n2cc3c(n2)CN(C(=O)c2cc(C#N)ccc2O[C@@H](C)C(F)(F)F)C3)ccn1 [Example 367, 3-[2-(2-Ethylpyridin-4-yl)-2H 4H 5H 6H-pyrrolo[3,4-c]pyrazole-5-carbonyl]-4-{[(2S)-1 1 1-trifluoropropan-2-yl]oxy}benzonitrile]
IC50: < 100 nM

CCc1cc(-n2cc3c(n2)CN(C(=O)c2cc(C#N)ccc2OC(C)C)C3)ccn1 [Example 368, 3-[2-(2-Ethylpyridin-4-yl)-2H 4H 5H 6H-pyrrolo[3,4-c]pyrazole-5-carbonyl]-4-(propan-2-yloxy)benzonitrile]
IC50: < 100 nM

COc1cc(-n2cc3c(n2)CN(C(=O)c2cc(C#N)ccc2OC(C)C)C3)ccn1 [Example 369, 3-[2-(2-Methoxypyridin-4-yl)-2H 4H 5H 6H-pyrrolo[3,4-c]pyrazole-5-carbonyl]-4-(propan-2-yloxy)benzonitrile]
IC50: < 100 nM

CCOc1cc(-n2cc3c(n2)CN(C(=O)c2cc(C#N)ccc2OC(C)C)C3)ccn1 [Example 370, 3-[2-(2-Ethoxypyridin-4-yl)-2H 4H 5H 6H-pyrrolo[3,4-c]pyrazole-5-carbonyl]-4-(propan-2-yloxy)benzonitrile]
IC50: 100 to 1000 nM

CCOc1cc(-n2cc3c(n2)CN(C(=O)c2cc(C#N)ccc2O[C@@H](C)C(F)(F)F)C3)ccn1 [Example 371, 3-[2-(2-Ethoxypyridin-4-yl)-2H 4H 5H 6H-pyrrolo[3,4-c]pyrazole-5-carbonyl]-4-{[(2S)-1 1 1-trifluoropropan-2-yl]oxy}benzonitrile]
IC50: 100 to 1000 nM

CC(C)Oc1cc(-n2cc3c(n2)CN(C(=O)c2cc(C#N)ccc2OC(C)C)C3)ccn1 [Example 373, 4-(Propan-2-yloxy)-3-{2-[2-(propan-2-yloxy)pyridin-4-yl]-2H 4H 5H 6H-pyrrolo[3,4-c]pyrazole-5-carbonyl}benzonitrile]
IC50: 100 to 1000 nM

CC(C)Oc1ccc(C#N)cc1C(=O)N1Cc2cn(-c3ccnc(C(C)C)c3)nc2C1 [Example 374, 3-{2-[2-(Propan-2-yl)pyridin-4-yl]-2H 4H 5H 6H-pyrrolo[3,4-c]pyrazole-5-carbonyl}-4-(propan-2-yloxy)benzonitrile]
IC50: < 100 nM

CC(C)c1cc(-n2cc3c(n2)CN(C(=O)c2cc(C#N)ccc2O[C@@H](C)C(F)(F)F)C3)ccn1 [Example 375, 3-{2-[2-(Propan-2-yl)pyridin-4-yl]-2H 4H 5H 6H-pyrrolo[3,4-c]pyrazole-5-carbonyl}-4-{[(2S)-1 1 1-trifluoropropan-2-yl]oxy}benzonitrile]
IC50: < 100 nM

COc1c(C#N)ccc(C2(F)CCCC2)c1C(=O)N1Cc2cn(-c3ccnc(C)c3)nc2C1 [Example 376, 4-(1-Fluorocyclopentyl)-2-methoxy-3-[2-(2-methylpyridin-4-yl)-2H 4H 5H 6H-pyrrolo[3,4-c]pyrazole-5-carbonyl]benzonitrile]
IC50: < 100 nM

COc1c(C#N)ccc(C2(F)CCCC2)c1C(=O)N1Cc2cn(-c3cncc(F)c3)nc2C1 [Example 377, 4-(1-Fluorocyclopentyl)-3-[2-(5-fluoropyridin-3-yl)-2H 4H 5H 6H-pyrrolo[3,4-c]pyrazole-5-carbonyl]-2-methoxybenzonitrile]
IC50: < 100 nM

C[C@H](Oc1ccc(C#N)cc1C(=O)N1Cc2cn(CC(C)(C)F)nc2C1)C(F)(F)F [Example 378, 3-[2-(2-Fluoro-2-methylpropyl)-2H 4H 5H 6H-pyrrolo[3,4-c]pyrazole-5-carbonyl]-4-{[(2S)-1 1 1-trifluoropropan-2-yl]oxy}benzonitrile]
IC50: 100 to 1000 nM
